{"source": "paper PMC8355244", "about": "“A fragment-based approach identifies an allosteric pocket that impacts malate dehydrogenase activity” (Communications Biology, 2021)", "key": {"PfMDH": {"molecular_target": "T1, PfMDH (Plasmodium falciparum, UniProt Q6VVP7)", "T1 construct": "The full-length WT PfMDH gene was cloned into pETM-13; made in house; host or cells: E. coli Rosetta 2 (DE3) pLysS", "T1 sequence (Q6VVP7 entry or part of it)": "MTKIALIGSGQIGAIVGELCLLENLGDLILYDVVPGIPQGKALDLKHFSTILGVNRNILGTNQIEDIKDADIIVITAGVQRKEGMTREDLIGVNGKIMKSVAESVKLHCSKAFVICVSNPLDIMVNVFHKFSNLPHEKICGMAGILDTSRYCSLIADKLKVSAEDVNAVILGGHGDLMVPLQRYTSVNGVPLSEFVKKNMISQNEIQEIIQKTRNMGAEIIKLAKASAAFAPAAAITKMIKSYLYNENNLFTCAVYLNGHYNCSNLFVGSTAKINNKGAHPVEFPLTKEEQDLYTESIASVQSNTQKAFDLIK", "test": "Thermal shift assay (TSA)", "format": "binding", "conditions": "three replicate columns", "protocol": "The TSA experiment was conducted in a BioRad CSX 96 (Biorad). Each reaction consisted of 1 mM of compound (100 mM stock in 100% (v/v) DMSO) and 10 μM PfMDH in 100 mM Na–phosphate buffer pH 7.4, 400 mM NaCl, and 10× Sypro Orange (Invitrogen) for a total volume of 100 μl. Control experiments were performed with 1% (v/v) DMSO. Inflection points were determined using BioRad CFX96™ control software. Generally, a temperature increase of over 1 °C is interpreted as a result of the stabilization of the protein-ligand interaction. On the contrary, a negative shift is considered a destabilization caused by the fragment."}, "WT PfMDH": {"molecular_target": "T2, WT PfMDH (Plasmodium falciparum, UniProt Q6VVP7)", "T2 construct": "The full-length WT PfMDH gene was cloned into pETM-13; made in house; host or cells: E. coli Rosetta 2 (DE3) pLysS", "T2 sequence (Q6VVP7 entry or part of it)": "as above", "test": "Activity screening of 4DT / 4-phenylthiazol-2-amine derivatives (oxidation of malate, absorbance at 340 nm)", "format": "biochemical", "protocol": "The oxidation of malate to oxaloacetate was assayed spectrophotometrically in flat-bottomed Corning 96-well microplates in a total volume of 250.0 µl in 50 mM glycine buffer pH 10.2[24] with an additional 400 mM NaCl for protein stability. The increase of absorbance at 340 nm was recorded in kinetic mode using a Tecan Spark multimode microplate reader at 298 K. A mastermix of 50 mM NAD+ and 44 μM PfMDH was used for both the screening and kinetics experiments. The final concentration of protein and cofactor were […], respectively. Positive control groups were set (absence of compound) in the same plate as the treated group. The absorbance from the background noise was subtracted from the data and then a linear regression model was employed in order to get the line slope from the first 5 min of the reaction. The percentage of enzymatic activity has been calculated as described by Eq. (1)1 enzymeactivity(%)=slopetreated/slopepositivecontrol*100\n1.3 µL of derivatives of 4-phenylthiazol-2-amine in 100% DMSO were mixed with 237.7 µL of a mastermix of WT PfMDH previously incubated with NAD+. The final compound concentration used in this screening was 500 µM in the presence of 0.5% (v/v) DMSO. The microplate was sealed with silver foil for 1-h incubation at 25–35 °C. Finally, reactions in both the samples and control wells were started upon the addition of 13.0 µL of 5 mM malate). At the end of the experiments, the reaction of the plate was spectrophotometrically assayed at 600 nm in order to identify turbidity due to the low solubility of the compound. All measurements were performed in duplicate."}}, "note": "“And” between values parts separate entries of the source, which are not always exact repeats. Identical values can stand only once. Like-named read-outs stand apart in the source and are kept apart here."}
{"smiles": "Cc1ccc(-c2csc(N)n2)cc1C", "note": "[compound 5a]", "values": [{"measurement": "TSA melting curve raw fluorescence signal", "setting": "PfMDH; Temperature 75", "result": "6191,69391237371 and 6136,98106377792 and 6022,22137708791"}, {"measurement": "TSA melting curve raw fluorescence signal", "setting": "PfMDH; Temperature 75.5", "result": "6155,53394325777 and 6106,56217628376 and 5994,69779058543"}, {"measurement": "TSA melting curve raw fluorescence signal", "setting": "PfMDH; Temperature 76", "result": "6119,21897947977 and 6076,80705748139 and 5967,4462924716"}, {"measurement": "TSA melting curve raw fluorescence signal", "setting": "PfMDH; Temperature 76.5", "result": "6082,92591216179 and 6047,4145361092 and 5940,31651314489"}, {"measurement": "TSA melting curve raw fluorescence signal", "setting": "PfMDH; Temperature 77", "result": "6046,49720538895 and 6018,41753205572 and 5913,27495012434"}, {"measurement": "TSA melting curve raw fluorescence signal", "setting": "PfMDH; Temperature 77.5", "result": "6010,50289688288 and 5990,00501222795 and 5885,78980691114"}, {"measurement": "TSA melting curve raw fluorescence signal", "setting": "PfMDH; Temperature 78", "result": "5974,68191071035 and 5961,9413128759 and 5858,29554785782"}, {"measurement": "TSA melting curve raw fluorescence signal", "setting": "PfMDH; Temperature 78.5", "result": "5938,84446109596 and 5933,98335794503 and 5831,1047548002"}, {"measurement": "TSA melting curve raw fluorescence signal", "setting": "PfMDH; Temperature 79", "result": "5902,97195912381 and 5906,58331664414 and 5804,43914738993"}, {"measurement": "TSA melting curve raw fluorescence signal", "setting": "PfMDH; Temperature 79.5", "result": "5867,41053847852 and 5879,50936774398 and 5777,86836204367"}, {"measurement": "TSA melting curve raw fluorescence signal", "setting": "PfMDH; Temperature 80", "result": "5831,53193853565 and 5852,76984504973 and 5751,94689709266"}, {"measurement": "TSA melting curve raw fluorescence signal", "setting": "PfMDH; Temperature 80.5", "result": "5795,82019427429 and 5826,58557638173 and 5726,2038969697"}, {"measurement": "TSA melting curve raw fluorescence signal", "setting": "PfMDH; Temperature 81", "result": "5760,30095342266 and 5801,18894213247 and 5700,36557719877"}, {"measurement": "TSA melting curve raw fluorescence signal", "setting": "PfMDH; Temperature 81.5", "result": "5725,24994225392 and 5776,10279717956 and 5674,32010159986"}, {"measurement": "TSA melting curve raw fluorescence signal", "setting": "PfMDH; Temperature 82", "result": "5690,32532905286 and 5751,3477386949 and 5648,72005725552"}, {"measurement": "TSA melting curve raw fluorescence signal", "setting": "PfMDH; Temperature 82.5", "result": "5655,78245522646 and 5726,77680893998 and 5623,03287837809"}, {"measurement": "TSA melting curve raw fluorescence signal", "setting": "PfMDH; Temperature 83", "result": "5621,55211537617 and 5702,38981297221 and 5597,5741352507"}, {"measurement": "TSA melting curve raw fluorescence signal", "setting": "PfMDH; Temperature 83.5", "result": "5587,90100461892 and 5677,89080987549 and 5572,13715933177"}, {"measurement": "TSA melting curve raw fluorescence signal", "setting": "PfMDH; Temperature 84", "result": "5554,68764858678 and 5653,54864689514 and 5546,61264074355"}, {"measurement": "TSA melting curve raw fluorescence signal", "setting": "PfMDH; Temperature 84.5", "result": "5522,12797974512 and 5629,23115607744 and 5520,89063035555"}, {"measurement": "TSA melting curve raw fluorescence signal", "setting": "PfMDH; Temperature 85", "result": "5490,3943722303 and 5605,20109514197 and 5495,02372927899"}, {"measurement": "TSA melting curve raw fluorescence signal", "setting": "PfMDH; Temperature 85.5", "result": "5459,26859138261 and 5580,93868945953 and 5469,03090217972"}, {"measurement": "TSA melting curve raw fluorescence signal", "setting": "PfMDH; Temperature 86", "result": "5428,58283846294 and 5556,95201224284 and 5443,19308365262"}, {"measurement": "TSA melting curve raw fluorescence signal", "setting": "PfMDH; Temperature 86.5", "result": "5398,09747442684 and 5532,99737771582 and 5417,41903670835"}, {"measurement": "TSA melting curve raw fluorescence signal", "setting": "PfMDH; Temperature 87", "result": "5367,90135308437 and 5508,96565185791 and 5391,30496945424"}, {"measurement": "TSA melting curve raw fluorescence signal", "setting": "PfMDH; Temperature 87.5", "result": "5337,34531670684 and 5484,37750610498 and 5364,66521912081"}, {"measurement": "TSA melting curve raw fluorescence signal", "setting": "PfMDH; Temperature 88", "result": "5306,8503048902 and 5459,61999119873 and 5337,15073673697"}, {"measurement": "TSA melting curve raw fluorescence signal", "setting": "PfMDH; Temperature 88.5", "result": "5276,4616972104 and 5434,08494262397 and 5308,68599271431"}, {"measurement": "TSA melting curve raw fluorescence signal", "setting": "PfMDH; Temperature 89", "result": "5246,27326568905 and 5407,79046445709 and 5279,36241888361"}, {"measurement": "TSA melting curve raw fluorescence signal", "setting": "PfMDH; Temperature 89.5", "result": "5216,45044474314 and 5380,95498835197 and 5249,45359350464"}, {"measurement": "TSA melting curve raw fluorescence signal", "setting": "PfMDH; Temperature 90", "result": "5187,98991931244"}, {"measurement": "remaining activity at 500 µM", "setting": "WT PfMDH; 500 µM compound, Dunnett test details, positive control mean 100, n 2, read-out: Mean 2 (mean % enzymatic activity of treated group)", "result": 52, "unit": "%"}, {"measurement": "inhibition at 500 µM", "setting": "WT PfMDH; 500 µM compound, Dunnett's multiple comparisons test, read-out: Mean Diff. (positive control vs. compound)", "result": 48.5, "unit": "%"}, {"measurement": "remaining activity at 500 µM", "setting": "WT PfMDH; 500 µM compound, control 100%, replicate 1, read-out: % enzymatic activity repl1", "result": 56, "unit": "%"}, {"measurement": "remaining activity at 500 µM", "setting": "WT PfMDH; 500 µM compound, control 100%, replicate 2, read-out: % enzymatic activity repl2", "result": 47, "unit": "%"}, {"measurement": "Slope repl1", "setting": "WT PfMDH; 500 µM compound, linear regression slope of absorbance 340 nm vs time, replicate 1", "result": 0.01855}, {"measurement": "Slope repl2", "setting": "WT PfMDH; 500 µM compound, linear regression slope of absorbance 340 nm vs time, replicate 2", "result": 0.01659}, {"measurement": "Slope normalized repl1", "setting": "WT PfMDH; 500 µM compound, slope relative to control = 1, replicate 1", "result": 0.5569}, {"measurement": "Slope normalized repl2", "setting": "WT PfMDH; 500 µM compound, slope relative to control = 1, replicate 2", "result": 0.4735}, {"measurement": "remaining activity at 500 µM", "setting": "WT PfMDH; read-out: enzyme activity", "result": 52, "unit": "%"}]}
